The text below walks through data of PMC7060351, “Biochemical features of the novel Tail Tubular Protein A of Yersinia phage phiYeO3-12” (Scientific Reports, 2020).

Test [1] deals with T1, TTPAgp11 (Yersinia phage phiYeO3-12, UniProt Q9T106).
T1 construct: gene 11
T1 sequence (Q9T106 1-196): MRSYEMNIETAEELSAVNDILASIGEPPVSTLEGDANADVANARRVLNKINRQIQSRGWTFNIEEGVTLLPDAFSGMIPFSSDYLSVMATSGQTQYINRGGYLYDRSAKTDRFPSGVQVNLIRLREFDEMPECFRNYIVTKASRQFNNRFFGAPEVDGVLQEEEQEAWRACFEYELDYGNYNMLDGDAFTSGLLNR
As to the kind of experiment: nanoDSF thermal unfolding ([…] nm ratio). It counts as binding. To be noted: 0.25 mg/ml protein, 0.15 mg/ml sugar; 2 °C/min from 20 to 95 °C; protein alone Tm 53.27 °C; inverted unfolding profile, aggregation.

The target in test [2] is T1, TTPAgp11. As to the kind of experiment: GC of released glucose after MTBSTFA derivatisation. To be noted: PBS, room temperature, 24 h; 20 µl of 47 µM protein, 100 µl of 1 mg/ml maltose in 0.2 ml. In kind it is biochemical.
Test [3] deals with T1, TTPAgp11. As to the kind of experiment: backreflection light scattering during nanoDSF melting scan (aggregation). It counts as binding. To be noted: 0.25 mg/ml protein, 0.15 mg/ml sugar; 2 °C/min from 20 to 95 °C; no unfolding Tm obtained (NA); no scattering transition for protein alone (NA). From the text: backreflection light scattering during nanoDSF melting scan (aggregation) on TTPAgp11

On to `CC(=O)N[C@H]1C(O)O[C@H](CO)[C@@H](O)[C@@H]1O` (stereo partly drawn) [N-acetylglucosamine], for which, on TTPAgp11 [1], the “Tm / Fluorescence ratio 350 nm/330 nm / [°C]” value came out at 36.41 °C.

As to `OC[C@H]1O[C@H](O[C@H]2[C@H](O)[C@@H](O)C(O)O[C@@H]2CO)[C@H](O)[C@@H](O)[C@@H]1O` (stereo partly drawn) [maltose], on TTPAgp11 [2], the “% of maltose hydrolyzed” value is listed as 15–18%. The “Tm / Scattering / [°C]” value at TTPAgp11 [3] was determined as 36.26 °C.
